Assays:
Format in all cases: in vivo, mouse
[1] = test system: SCC-15 head and neck cancer xenograft; assay: SCC-15 xenograft tumor growth; details: for TGD, single agent / TGImax, single agent: SCC-15, SCID mice
Experimental: Radiation is a commonly used cytotoxic therapy in oncology. […] SCC-15 head and neck cancer cells (1 million) were implanted subcutaneously into SCID mice, and mice were randomized when the tumors reached ˜200 mm^3 and dosed with biologics at 12 mg/kg intraperitoneally on a Q4D×6 (one dose given every 4 days for a total of 6 doses), while the radiation was directed at the tumor with a single radiation dose of 15 Gy on day 0.
SCC-15 head and neck cancer cells (1 million) were implanted subcutaneously into SCID mice, and mice were randomized when the tumors reached ˜200 mm^3 and dosed with biologics at 12 mg/kg intraperitoneally on a Q7D×6 (one dose given every 7 days for a total of 6 doses), while carboplatin was dosed intraperitoneally […] at 50 mg/kg Q4D×4 (one dose given every 4 days for a total of 4 doses).

[2] = test system: NCI-H1650 (NSCLC) xenograft; assay: NCI-H1650 xenograft tumor growth
Experimental: The potency of anti-huLRRC15 ADCs as compared to current standards of care was assessed in xenograft models with NCI-H1650 ([…]), HN5 (head and neck), EBC-1 (squamous NSCLC), NW231 (breast) and PANC1 (pancreatic) cancer cells. […] For FIG. 20A, NCI-H1650 cells (5 million cells) were implanted subcutaneously into SCID/Beige mice and tumors were randomized when they reached ˜200 mm^3 and dosed with biologics at 6 or 12 mg/kg intraperitoneally on a Q4D×6 (one dose given every 4 days for a total of 6 doses), while erlotinib was dosed orally daily for 10 days at 100 mg/kg, and carboplatin was dosed intraperitoneally Q4D×4 (one dose given every 4 days for a total of 4 doses) at 50 mg/kg.
NCI-H1650 NSCLC cancer cells (5 million) were implanted subcutaneously into SCID/Beige mice, and mice were randomized when the tumors reached ˜200 mm^3 and dosed with biologics at 6 or 12 mg/kg intraperitoneally on a Q4D×6 (one dose given every 4 days for a total of 6 doses), while erlotinib was dosed orally daily at 100 mg/kg for 10 doses.
NCI-H1650 NSCLC cancer cells (5 million) were implanted subcutaneously into SCID/Beige mice, and mice were randomized when the tumors reached ˜200 mm^3 and dosed on day 0 with isotype or ADC at 0.1, 0.3, or 0.6 mg/kg intraperitoneally.
NCI-H1650 adeno NSCLC cells (5 million) were implanted subcutaneously into SCID/Beige mice, and mice were randomized when the tumors reached ˜225 mm^3 and dosed with ADC at 0.6 mg/kg or isotype antibody at 12 mg/kg intraperitoneally once on day 0.

[3] = test system: HPAF-II (human pancreatic) xenograft; assay: HPAF-II xenograft tumor growth
Experimental: For the experiment, 1 million cells (HPAF-II) that were grown in vitro were inoculated subcutaneously per mouse into the right flank of female SCID-Beige mice. Tumors were size matched at ˜200 mm^3, and dosed intraperitoneally (IP) Q4D×6 (1 dose given every 4 days for a total of 6 doses) as shown in FIG. 13B.
In FIG. 21A, HPAF-II pancreatic cancer cells (1 million) were implanted subcutaneously into SCID mice, and mice were randomized when the tumors reached ˜200 mm^3 and dosed with biologics at 6 mg/kg intraperitoneally on a Q4D×6 (one dose given every 4 days for a total of 6 doses), while gemcitabine was dosed intraperitoneally at 100 mg/kg (Q3D×4)×2 (one dose given every three days for 4 doses per cycle, 2 cycles with 8 total doses given).

[4] = test system: EBC-1 (human squamous NSCLC) xenograft; assay: EBC-1 xenograft tumor growth
Experimental: For the experiments, five million cells (EBC-1) that were grown in vitro were inoculated subcutaneously per mouse into the right flank of female SCID-Beige mice. Tumors were size matched at ˜200 mm^3, and dosed intraperitoneally (IP) Q4D×6 (1 dose given every 4 days for a total of 6 doses) as shown in FIG. 13A. Measurements of the length (L) and width (W) of the tumors were taken via electronic caliper and the volume was calculated according to the following equation: V=L×W^2/2.
For this experiment, tumors were size matched at ˜200 mm^3, and dosed intraperitoneally (IP) Q7D×2 (1 dose given every 7 days for a total of 2 doses) as shown in FIG. 13C. […]
5 million cells were implanted subcutaneously into SCID/Beige mice, and mice were randomized when tumor group mean volumes reached ˜200 mm^3.
In FIG. 20C, EBC1 cells (5 million) were implanted subcutaneously into SCID/Beige mice and mice were randomized when the tumors reached ˜200 mm^3 and dosed with biologics at 6 mg/kg intraperitoneally on a Q7D×2 (one dose given every 7 days for a total of 2 doses), while erlotinib was dosed orally daily for 10 days at 50 mg/kg, and carboplatin was dosed intraperitoneally Q4D×3 (one dose given every 4 days for a total of 3 doses) at 50 mg/kg.
In FIG. 21B, EBC-1 squamous NSCLC cells (5 million) were implanted subcutaneously into SCID/Beige mice, and mice were randomized when the tumors reached ˜200 mm^3 and dosed with biologics at 6 mg/kg intraperitoneally on a Q7D×2 (one dose given every 7 days for a total of 2 doses), while gemcitabine was dosed intraperitoneally at 100 mg/kg (Q3D×3) (one dose given every three days for 3 doses total).

[5] = biologics 12 mg/kg IP Q4D×6 (FIG. 21D)
[6] = biologics 12 mg/kg IP Q7D×6, carboplatin 50 mg/kg IP Q4D×4 (FIG. 21E)
[7] = SCC-15, ADC 12 mg/kg IP Q4D×6 plus single radiation dose of 15 Gy on day 0 (FIG. 21D)
[8] = SCC-15, ADC 12 mg/kg IP Q7D×6 plus carboplatin 50 mg/kg IP Q4D×4 (FIG. 21E)
[9] = NCI-H1650, SCID/Beige mice, biologics 6 or 12 mg/kg IP Q4D×6, erlotinib 100 mg/kg orally daily ×10, carboplatin 50 mg/kg IP Q4D×4 (FIG. 20A, 22A)
[10] = NCI-H1650, ADC 6 or 12 mg/kg IP Q4D×6 plus erlotinib 100 mg/kg orally daily ×10 (FIG. 22A)
[11] = ADC 6 mg/kg IP Q4D×6 plus gemcitabine 100 mg/kg IP (Q3D×4)×2 (FIG. 21A)
[12] = SCID mice, biologics 6 mg/kg IP Q4D×6, gemcitabine 100 mg/kg IP (Q3D×4)×2 (FIG. 21A)
[13] = SCID-Beige mice, 6 mg/kg IP Q4D×6 (FIG. 13B)
[14] = EBC1, SCID/Beige mice, biologics 6 mg/kg IP Q7D×2, erlotinib 50 mg/kg orally daily ×10, carboplatin 50 mg/kg IP Q4D×3 (FIG. 20C)
[15] = EBC-1, SCID-Beige mice, 6 mg/kg IP Q4D×6 (FIG. 13A)
[16] = EBC-1, ADC plus second agent of FIG. 21B (sentence: docetaxel; method and legend: gemcitabine)

Substance: huM25-vcMMAE-E2: huM25 conjugated with maleimidocaproyl val-cit PABA MMAE, preparation enriched in DAR2 by HIC
- TGD, single agent [1, 5]: 44%
- TGImax, single agent [1, 5]: 58%
- TGD, single agent [1, 6]: 44%
- TGImax, single agent [1, 6]: 58%
- TGD, used adjunctively with radiation [1, 7]: 219%
- TGImax, used adjunctively with radiation [1, 7]: 90%
- TGD, used adjunctively with carboplatin [1, 8]: 83%
- TGImax, used adjunctively with carboplatin [1, 8]: 86%
- TGD, single agent [2, 9]: 450%
- TGImax, single agent [2, 9]: 92%
- TGD, used adjunctively with erlotinib [2, 10]: > 538%
- TGImax, used adjunctively with erlotinib [2, 10]: 92%
- TGD, used adjunctively with gemcitabine [3, 11]: 183%
- TGImax, used adjunctively with gemcitabine [3, 11]: 85%
- TGD, single agent [3, 12]: 57%
- TGImax, single agent [3, 12]: 57%
- TGImax [3, 13]: 76%
- tumor growth delay [3, 13]: 133%
- TGD [4, 14]: 129%
- TGImax [4, 14]: 92%
- maximum tumor growth inhibition (TGImax) [4, 15]: 97%
- tumor growth delay (TGD) [4, 15]: 305%
- TGD, single agent ([4]; EBC-1, SCID/Beige mice, huM25-vcMMAE-E2 at 3 mg/kg (method: biologics 6 mg/kg IP Q7D×2), method: gemcitabine 100 mg/kg IP Q3D×3, result sentence names docetaxel (FIG. 21B)): 144%
- TGD, used adjunctively [4, 16]: 348%
- TGImax, used adjunctively [4, 16]: 98%

Source: US11045480B2, “Anti-huLRRC15 antibody drug conjugates and methods for their use” (AbbVie Inc., priority 2015, dated 2021)
